Measured values reported in US8658649B2, “Kinase inhibitor” (Sanofi, priority 2006, dated 2014).
pIC50: −log10 of the molar value.

Columns and labels:
DLCL-2 = experiment: Viability assay of liquid tumor cell lines (MTS); assay type: cell-based; details: DLCL-2 (B-NHL), N = 4
Method: (§1) This method is to determine the viability of a liquid tumor cell line following treatment with a test compound. Tumor cells are maintained in suspension at log phase growth. On the day of use, cells are resuspended to a density of 0.05 to 0.1 million/ml and cells are incubated in 96 well plate with the test compounds for 96 hours. Viability of cells was measured by incubating cells with Promega's MTS reagent. The viability of the cell is proportional to the change in absorbance at 490 nm. By comparing the absorbance between control and compound-treated cells, the impact of the test compounds on the cell viability is determined as a percent of the control cell viability.
(§2) Harvest cells in complete RPMI from log-phase cultures at densities of approximately 0.3-0.7 million/ml. Count cells and adjust to 0.1 million/ml in phenol red free cRPMI (For fast growing cells with doubling time of equal or less than 24 hours, e.g. K562, use 0.05 million/ml instead to avoid over-growing).
(§3) Transfer triplicates of 100 μl of cells to the wells of 96-well clear plates for a total of 10000 cells/well. Note that each well already contains 10 μl of 10× concentrated test compound prepared as above.
(§4) Incubate cells for 72-96 hours at 37° C. in a tissue culture incubator containing 5% CO2.
(§5) 1. Thaw the Promega's MTS reagent and add 20 ul to each well with a repeat pipetor.
(§6) 4. Incubate at 370 C until the absorbance at 490 nm for the control cells is >1.5.
(§7) 5. Calculate the averaged compound-treated cell data as a percent of the averaged control cell data as follows: (Compound-treated value/control value)*100=% of control value Results: […]

DOHH-2 = experiment: Viability assay of liquid tumor cell lines (MTS); assay type: cell-based; details: DOHH-2 (B-NHL), N = 4
Method: as §1, §2, §3, §4, §5, §6, §7

Granta-519 = experiment: Viability assay of liquid tumor cell lines (MTS); assay type: cell-based; details: Granta-519 (MCL), N = 4
Method: as §1, §2, §3, §4, §5, §6, §7

Jeko-1 = experiment: Viability assay of liquid tumor cell lines (MTS); assay type: cell-based; details: Jeko-1 (MCL), N = 4
Method: as §1, §2, §3, §4, §5, §6, §7

Jurkat = experiment: Viability assay of liquid tumor cell lines (MTS); assay type: cell-based; details: Jurkat (T-ALL), N = 4; for pIC50: MTS assay
Method: as §1, §2, §3, §4, §5, §6, §7

Jurl-MK1 = experiment: Viability assay of liquid tumor cell lines (MTS); assay type: cell-based; details: Jurl-MK1 (CML), N = 4
Method: as §1, §2, §3, §4, §5, §6, §7

KG-1 = experiment: Viability assay of liquid tumor cell lines (MTS); assay type: cell-based; details: KG-1 (AML), N = 4
Method: as §1, §2, §3, §4, §5, §6, §7

L-363 = experiment: Viability assay of liquid tumor cell lines (MTS); assay type: cell-based; details: L-363 (MM), N = 4
Method: as §1, §2, §3, §4, §5, §6, §7

Nalm-6 = experiment: Viability assay of liquid tumor cell lines (MTS); assay type: cell-based; details: Nalm-6 (B-ALL), N = 4
Method: as §1, §2, §3, §4, §5, §6, §7

[1] = tested on: Collagen-induced arthritis (CIA); experiment: Rat collagen induced arthritis, prophylactic dosing; assay type: in vivo; details: vs vehicle
Method: (§8) Immunization and Challenge: Female Lewis rats were immunized on day 0 and challenged on day 7 with cII from bovine nasal mixed with Freund's incomplete adjuvant at a final collagen concentration of 1.0 mg/ml. The animals were injected at the base of the tail with 400 μg of cII.
Prophylactic Dosing Regimen: The compound of Formula I (3.0, 10, and 30 mg/kg) was orally dosed (p.o.) twice daily (b.i.d.) starting on day 6 and continued through day 21.
(§9) Joint Pathology Ankle joint swelling was measured to the nearest 0.01 mm by using electronic digital calipers. Measurements were recorded 7 times throughout the study starting on day 6 and ending on day 21. Body weights were recorded on the same days. On day 21, hind paws were removed at the hairline just above the ankle and fixed in 10% neutral buffered formalin.
MicroCT analysis: Ankle joints were examined using a cone-beam μCT scanner. A scout view scan was obtained first for selection of the examination volume of the specimens, followed by positioning, measurement and computational reconstruction. In ankle joints, the ratio of bone surface to bone volume, describing the complexity of bone surface in a certain volume, was analyzed.
Statistical Analysis For joint swelling/inflammation, data were analyzed using Everstat v.5 software and a 2-way repeated measure ANOVA with Dunnett's post test. MicroCT data were analyzed by Everstat using a 1-way ANOVA and Newman-Keuls multiple comparison test. Data are presented as the mean±SEM and p values of <0.05 are considered significant.

[2] = tested on: Collagen-induced arthritis (CIA); experiment: Rat collagen induced arthritis, combination dosing with Methotrexate; assay type: in vivo
Method: Immunization and Challenge: Female Lewis rats were immunized on day 0 and challenged on day 7 with cII from bovine nasal mixed with Freund's incomplete adjuvant at a final collagen concentration of 1.0 mg/ml. The animals were injected at the base of the tail with 400 μg of cII. Combination Dosing Regimen: Rats were dosed with the compound of Formula I (3.0 and 10 mg/kg, p.o., bi.d.) or Methotrexate (MTX, 0.1 and 0.2 mg/kg, p.o., q.d.) as monotherapy or in combinations consisting of each dose of the compound of Formula I with each dose of MTX starting on day 6 and continuing through day 21. Joint Pathology Ankle joint swelling was measured to the nearest 0.01 mm by using electronic digital calipers. Measurements were recorded 7 times throughout the study starting on day 6 and ending on day 21. Body weights were recorded on the same days. On day 21, hind paws were removed at the hairline just above the ankle and fixed in 10% neutral buffered formalin. MicroCT analysis: Ankle joints were examined using a cone-beam μCT scanner. A scout view scan was obtained first for selection of the examination volume of the specimens, followed by positioning, measurement and computational reconstruction. In ankle joints, the ratio of bone surface to bone volume, describing the complexity of bone surface in a certain volume, was analyzed. Statistical Analysis For joint swelling/inflammation, data were analyzed using Everstat v.5 software and a 2-way repeated measure ANOVA with Dunnett's post test. MicroCT data were analyzed by Everstat using a 1-way ANOVA and Newman-Keuls multiple comparison test.

[3] = tested on: Collagen-induced arthritis (CIA); experiment: Rat collagen induced arthritis, therapeutic dosing; assay type: in vivo
Method: as §8
Therapeutic Dosing Regimen: The compound of Formula I (10 and 30 mg/kg, p.o., b.i.d.) was orally administered starting on day 12 and continued through day 21.
as §9
MicroCT analysis: Ankle joints were examined using a cone-beam μCT scanner. […] In ankle joints, the ratio of bone surface to bone volume, describing the complexity of bone surface in a certain volume, was analyzed.
Statistical Analysis For joint swelling/inflammation, data were analyzed using Everstat v.5 software and a 2-way repeated measure ANOVA with Dunnett's post test. MicroCT data were analyzed by Everstat using a 1-way ANOVA and Newman-Keuls multiple comparison test. […]

- pIC50 (DOHH-2; Homo sapiens, MTS assay): 5.35
- pIC50 (Granta-519; Homo sapiens, MTS assay): 5.47
- pIC50 (Jeko-1; Homo sapiens, MTS assay): 5.51
- pIC50 (Jurkat; Homo sapiens, Jurkat): 5.17
- pIC50 (Jurkat; listed as A003397769): < 5.00
- pIC50 (KG-1; Homo sapiens, MTS assay): 5.72
- pIC50 (L-363; Homo sapiens, MTS assay): 5.26
- pIC50 (Nalm-6; Homo sapiens, MTS assay): 5.26
SMILES: CCc1c(-c2ccc(C(C)(C)O)cc2)[nH]c2nccnc12 [compound of Formula I, 2-[4-(7-Ethyl-5H-pyrrolo[2,3-b]pyrazin-6-yl)-phenyl]-propan-2-ol]
- % Inhibition at max. conc. (10 uM) (DLCL-2): 0%
- % Inhibition at max. conc. (10 uM) (DOHH-2; 10 uM): 75%
- % Inhibition at max. conc. (10 uM) (Granta-519; 10 uM): 67%
- % Inhibition at max. conc. (10 uM) (Jeko-1; 10 uM): 97%
- % Inhibition at max. conc. (10 uM) (Jurkat; 10 uM): 43%
- % Inhibition at max. conc. (10 uM) (Jurl-MK1): 28%
- % Inhibition at max. conc. (10 uM) (KG-1; 10 uM): 91%
- % Inhibition at max. conc. (10 uM) (L-363; 10 uM): 61%
- % Inhibition at max. conc. (10 uM) (Nalm-6; 10 uM): 84%
- ankle swelling/inflammation ([1]; 3.0 mg/kg p.o. b.i.d. day 6-21, on day 12 only): significantly reduced ankle swelling/inflammation
- ankle swelling/inflammation ([1]; 10 mg/kg p.o. b.i.d. day 6-21, on days 12 through 19): significantly reduced ankle swelling/inflammation
- ankle swelling/inflammation ([1]; 30 mg/kg p.o. b.i.d. day 6-21, from day 12 through day 21): significantly reduced ankle swelling/inflammation
- bone erosion (ratio of bone surface to bone volume), MicroCT ([1]; 3, 10 or 30 mg/kg b.i.d.): significant reductions in bone erosion
- disease severity as measured by joint swelling/inflammation ([2]; 3.0 mg/kg monotherapy): failed to significantly impact on disease severity
- bone erosion, MicroCT ([2]; 3 mg/kg monotherapy, vs vehicle): significant decrease was not observed
- ankle swelling/inflammation ([2]; 10 mg/kg monotherapy, vs vehicle, days 15 through 21): significantly reduced ankle swelling/inflammation
- bone erosion, MicroCT ([2]; 10 mg/kg po bid monotherapy, vs vehicle): significant decrease in bone erosion
- bone erosion (ratio of bone surface to bone volume), MicroCT ([3]; 10 mg/kg or 30 mg/kg, therapeutic dosing, vs vehicle): significant decrease in bone erosion
- ankle swelling/inflammation ([3]; 10 and 30 mg/kg p.o. b.i.d. from day 12, day 15-21): significantly reduced ankle swelling/inflammation
